Measurements reported in paper PMC8580996, “2-Oxoglutarate derivatives can selectively enhance or inhibit the activity of human oxygenases” (Nature Communications, 2021).
Several values for one entry are separate records, joined by “and”; a condition that tells them apart may be missing. Equal entries are not always repeated. Entries after “also recorded” stand apart in the source; their conditions may differ. Where two headings read alike, the source gives them in different places.

Key:
[1] = molecular target: FIH (Homo sapiens, UniProt Q9NWT6); assay: SPE-MS FIH inhibition assay; format: biochemical; as to IC50 FIH: 0.15 µM FIH
FIH, sequence (Q9NWT6 whole entry): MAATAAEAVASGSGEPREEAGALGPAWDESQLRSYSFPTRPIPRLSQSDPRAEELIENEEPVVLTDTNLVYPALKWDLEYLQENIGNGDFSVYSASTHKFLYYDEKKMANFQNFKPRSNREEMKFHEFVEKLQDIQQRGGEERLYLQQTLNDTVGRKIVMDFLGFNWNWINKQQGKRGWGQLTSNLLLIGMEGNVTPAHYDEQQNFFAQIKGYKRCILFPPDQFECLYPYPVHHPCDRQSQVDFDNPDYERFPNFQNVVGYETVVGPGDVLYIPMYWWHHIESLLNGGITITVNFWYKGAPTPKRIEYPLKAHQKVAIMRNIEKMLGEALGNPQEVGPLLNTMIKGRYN
Method: FIH inhibition assays were performed as described, using cosubstrate/cofactor stock solutions (L-ascorbic acid, LAA: 50 mM in MQ-grade water; 2-oxoglutarate, 2OG: 10 mM in MQ-grade water; ammonium iron(II) sulfate hexahydrate, FAS, (NH4)2Fe(SO4)2·6H2O: 400 mM in 20 mM HCl diluted to 1 mM in MQ-grade water), which were freshly prepared from commercially-sourced solids (Sigma Aldrich).
Dimethyl sulfoxide (DMSO) solutions of the 2OG derivatives were dry dispensed across 384-well polypropylene assay plates (Greiner) in an approximately threefold and 11-point dilution series (100 μM top concentration; the final DMSO assay concentration was kept constant at 0.5%v/v) using an ECHO 550 acoustic dispenser (Labcyte). […] Each reaction was performed in technical duplicates in adjacent wells of the assay plates; additionally, assays were performed in two independent duplicates on different days using different inhibitor solutions.
The Enzyme Mixture (25 μL/well), containing 0.3 μM His6-FIH in buffer (50 mM Tris, 50 mM NaCl, pH 7.5), was dispensed across the inhibitor-containing 384-well assay plates with a multidrop dispenser (ThermoFischer Scientific) at 20 °C under an ambient atmosphere. The plates were subsequently centrifuged (1000 rpm, 15 s) and incubated for 15 min at 20 °C. The Substrate Mixture (25 μL/well), containing 10.0 μM HIF-1α788–822[37] substrate, 200 μM LAA, 20.0 μM 2OG, and 20.0 μM FAS in buffer (50 mM Tris, 50 mM NaCl, pH 7.5), was added using the multidrop dispenser. The plates were centrifuged (1000 rpm, 15 s) and after incubating for 15 min, the enzyme reaction was stopped by the addition of 10%v/v aqueous formic acid (5 μL/well). The plates were then centrifuged (1000 rpm, 30 s) and analyzed by MS.
MS-analyses were performed using a RapidFire RF 365 high-throughput sampling robot (Agilent) attached to an iFunnel Agilent 6550 accurate-mass quadrupole time-of-flight mass spectrometer operated in the positive ionization mode. Assay samples were aspirated under vacuum for 0.6 s and loaded onto a C4 SPE cartridge. After loading, the C4 SPE cartridge was washed with 0.1%v/v aqueous formic acid to remove non-volatile buffer salts (5.5 s, 1.5 mL/min). […] The mass spectrometer was operated using the MassHunter Workstation B.08.00 software (Agilent), the mass spectrometer parameters were: capillary voltage (4000 V), nozzle voltage (1000 V), fragmentor voltage (365 V), gas temperature (280 °C), gas flow (13 L/min), sheath gas temperature (350 °C), sheath gas flow (12 L/min). The m/z + 2 (for CA1–20) or +3 (for HIF-1α788–822) charge states of the peptide (substrate) and the hydroxylated peptide (product) were used to extract ion chromatogram data, peak areas were integrated using RapidFire Integrator 4.3.0 (Agilent). Data were exported into Microsoft Excel and used to calculate the % conversion of the hydroxylation reaction using the equation: % conversion = 100 × (integral product peptide)/(integral substrate peptide+integral product peptide). […] Z′-factors were calculated according to the cited literature using Microsoft Excel (Supplementary Fig. 26)[83].
SPE-MS FIH inhibition assays were performed as described in the Methods section.
Tris, 50 mM NaCl, pH 7.5, 20 °C). […]

[2] = molecular target: T1, AspH (Homo sapiens, UniProt Q12797); conditions: 0.05 μM AspH, 1.0 μM hFX-CP101-119, 3.0 μM 2OG, ref 21 (supplementary ref 1); cited from earlier work
T1 construct: the tetratricopeptide repeat domain (His6-AspH315-758), was produced and purified as previously reported; made in house
T1 sequence (Q12797 315-758): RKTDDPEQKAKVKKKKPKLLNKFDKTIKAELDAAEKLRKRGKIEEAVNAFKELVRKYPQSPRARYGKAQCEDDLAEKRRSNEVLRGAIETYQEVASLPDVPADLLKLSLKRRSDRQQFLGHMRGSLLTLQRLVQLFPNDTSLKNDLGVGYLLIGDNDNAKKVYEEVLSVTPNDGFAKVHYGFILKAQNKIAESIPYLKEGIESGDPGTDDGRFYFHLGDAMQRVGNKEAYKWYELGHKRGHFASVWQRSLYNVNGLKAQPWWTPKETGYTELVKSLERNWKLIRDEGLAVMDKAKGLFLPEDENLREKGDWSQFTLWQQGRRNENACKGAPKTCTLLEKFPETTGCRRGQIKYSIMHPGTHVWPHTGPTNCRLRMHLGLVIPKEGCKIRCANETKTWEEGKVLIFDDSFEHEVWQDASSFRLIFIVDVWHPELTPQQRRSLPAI

[3] = source data of Table 3, single independent replicates
[4] = source data of Table 3, single independent replicates, read-out: FIH IC50, independent replicate

Compound	FIH IC50, independent replicate [1, 3]	IC50 AspH [2]	IC50 [1, 4]	also measured
CC(CC(=O)O)C(=O)C(=O)O (stereo not drawn) [compound 1, 3-methyl-2OG]	not inhibiting	inactive	–	–
CC(CC(=O)C(=O)O)C(=O)O (stereo not drawn) [compound 12, 4-methyl-2OG]	not inhibiting	inactive; also recorded: neither inhibits AspH nor FIH	–	–
CCC(CC(=O)C(=O)O)C(=O)O (stereo not drawn) [compound 14, 4-ethyl-2OG]	–	–	27.8 µM and 13.3 µM and 16.6 µM	IC50 ([1]; […] FIH, 5.0 μM HIF-1α788-822, 10 μM 2OG, mean of two runs, read-out: IC50 FIH): 19.3 µM
O=C(O)C(=O)CC(CCCc1ccccc1)C(=O)O (stereo not drawn) [compound 18, 4-(3-phenylpropyl)-2OG]	–	–	0.864 µM and 0.923 µM	–
O=C(O)C(=O)C1CCC(C(=O)O)C1 (stereo not drawn) [compound 22, 3-(carboxycarbonyl)cyclopentane-1-carboxylic acid]	–	–	–	IC50 FIH ([1]; […] FIH, 5.0 μM HIF-1α788-822, 10 μM 2OG, mean of two runs): inactive; IC50 [2]: 5 µM
